Measurements: PubChem BioAssay (NCI)
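Grown in 96-well plates, cells were treated for 48 hours with each compound at five concentrations. Insufficient inhibition: endpoint recorded as highest concentration tested. At the GI50, growth is halved. At the TGI there is no net growth.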

Assays:
Test in all cases: NCI anticancer screen, dose series, 48 h
[1] = test system: HOP-92 NSCLC
[2] = test system: SK-OV-3 ovarian
[3] = test system: HL-60(TB) leukemia
[4] = test system: EKVX NSCLC
[5] = test system: OVCAR-4 ovarian
[6] = test system: CAKI-1 renal
[7] = test system: SK-MEL-28 melanoma
[8] = test system: PC-3 prostate
[9] = test system: SW-620 colon
[10] = test system: DU-145 prostate

Row | SMILES | TGI [1] | TGI [2] | TGI [3] | TGI [4] | TGI [5] | TGI [6] | TGI [7] | TGI [8] | TGI [9] | TGI [10] | GI50 [2] | GI50 [3] | GI50 [4] | GI50 [5] | GI50 [6] | GI50 [10] | GI50 [8]
1 | COc1ccc2nc(-c3ccc(N)cc3)sc2c1 | > 100 µM | > 100 µM | > 100 µM | > 100 µM | > 100 µM | > 100 µM | > 100 µM | > 100 µM | > 100 µM | – | – | – | – | – | – | – | –
2 | COC(OC)c1cccc2c1C(=O)CCC1(CC2)OCCCCO1 | – | > 100 µM | > 100 µM | – | > 100 µM | > 100 µM | > 100 µM | – | > 100 µM | – | – | – | – | – | – | – | –
3 | O=[N+]([O-])c1ccc(CSC2=C(c3ccc(Cl)cc3)S/C(=C3\SC(SCc4ccc([N+](=O)[O-])cc4)=C(c4ccc(Cl)cc4)S3)S2)cc1 | > 100 µM | > 100 µM | – | > 100 µM | > 100 µM | > 100 µM | > 100 µM | > 100 µM | > 100 µM | > 100 µM | – | – | – | – | – | – | –
4 | Cc1cc2c3ccccc3n3c2c2c1OC1(C)CCC(C2C1)C3(C)C (stereo unspecified) | > 25 µM | > 25 µM | > 25 µM | – | > 25 µM | – | > 25 µM | – | > 25 µM | – | – | – | – | – | – | – | –
5 | CCn1c(=O)c2nc(SC)sc2n(-c2ccccc2)c1=S | > 100 µM | > 100 µM | 19.9 µM | > 100 µM | > 100 µM | – | > 100 µM | > 100 µM | > 100 µM | > 100 µM | – | – | – | – | – | – | –
6 | C#C[C@]1(O)CC[C@H]2[C@@H]3CCC4=C/C(=N/OC(=O)c5cccc6cc7ccccc7nc56)CC[C@@H]4[C@H]3CC[C@@]21CC | > 100 µM | > 100 µM | > 100 µM | – | > 100 µM | > 100 µM | > 100 µM | > 100 µM | > 100 µM | > 100 µM | – | – | – | – | – | – | –
7 | CSC(SC)=C(C#N)C(=O)Nc1ccc(Cl)cc1 | – | > 100 µM | 69.3 µM | > 100 µM | > 100 µM | 78.9 µM | > 100 µM | > 100 µM | > 100 µM | > 100 µM | – | – | – | – | – | – | –
8 | C[N+]1(CC[N+]2(C)CCCC2c2cccnc2)CCCC1c1cccnc1 (stereo unspecified) | > 100 µM | > 100 µM | – | 86.9 µM | > 100 µM | > 100 µM | > 100 µM | > 100 µM | > 100 µM | > 100 µM | – | – | – | – | – | – | –
9 | Cc1cccc(NC(=S)NNC(=O)c2cc(-c3ccccc3)nc3ccccc23)c1 | 68.5 µM | 59.2 µM | – | – | > 100 µM | 72.4 µM | > 100 µM | 83.3 µM | > 100 µM | > 100 µM | – | – | – | – | – | – | –
10 | CN(C)CCCn1c(-c2ccc(Br)cc2)csc1=Nc1ccccc1 | > 100 µM | 40.4 µM | > 100 µM | 23.8 µM | 38 µM | 41 µM | 53.3 µM | 25.2 µM | – | – | – | – | – | – | – | – | –
11 | NC1=Nc2ncccc2C(=O)NN1 | > 10 µM | > 10 µM | > 10 µM | > 10 µM | – | – | > 10 µM | > 10 µM | > 10 µM | > 10 µM | – | – | – | – | – | – | –
12 | CCOC(=O)c1c(NS(=O)(=O)c2ccccc2)sc2c1CCCC2 | – | – | > 100 µM | > 100 µM | – | > 100 µM | – | > 100 µM | – | > 100 µM | – | – | – | – | – | – | –
13 | COc1cccc(C2c3cc4c(cc3OC(NNS(=O)(=O)c3ccc(C)cc3)C2C)OCO4)c1O (stereo unspecified) | 76.3 µM | > 100 µM | 38.2 µM | > 100 µM | – | > 100 µM | 78.8 µM | 65.8 µM | > 100 µM | > 100 µM | – | – | – | – | – | – | –
14 | C=CC[PH+](c1ccccc1)c1ccccc1.C=CC[PH+](c1ccccc1)c1ccccc1.[Pt+2].[S-]c1nc2ccccc2[nH]1.[S-]c1nc2ccccc2[nH]1 | – | 27.4 µM | 7.32 µM | > 100 µM | > 100 µM | 12.8 µM | – | 5.58 µM | – | 42.8 µM | 3.16 µM | 2.51 µM | 2.36 µM | 2.56 µM | 2.54 µM | 3.33 µM | 1.62 µM
15 | COC(=O)[C@@H]1CN(C(=O)Cc2ccccc2)C(=O)N1 | > 100 µM | – | > 100 µM | > 100 µM | > 100 µM | > 100 µM | > 100 µM | > 100 µM | > 100 µM | > 100 µM | – | – | – | – | – | – | –
16 | Cc1cc2nc3c(N)nn(CCCN(C)C)c3nc2cc1C | – | > 100 µM | – | > 100 µM | > 100 µM | > 100 µM | > 100 µM | > 100 µM | > 100 µM | > 100 µM | – | – | – | – | – | – | –
17 | CN1N=C(c2ccncc2)OC1c1ccc(C(F)(F)F)cc1 (stereo unspecified) | – | > 100 µM | > 100 µM | > 100 µM | > 100 µM | – | > 100 µM | > 100 µM | > 100 µM | > 100 µM | – | – | – | – | – | – | –
18 | CCN(CC)C(=O)N[C@@H](CC(C)C)C(=O)NC | – | > 100 µM | > 100 µM | > 100 µM | > 100 µM | > 100 µM | > 100 µM | > 100 µM | > 100 µM | > 100 µM | – | – | – | – | – | – | –
19 | CCCOC(=O)CCC(NC(=O)c1ccc(Nc2nc3ccccc3nc2-c2cccs2)cc1)C(=O)OCCC (stereo unspecified) | > 100 µM | > 100 µM | – | > 100 µM | > 100 µM | > 100 µM | > 100 µM | – | > 100 µM | – | – | – | – | – | – | – | –
20 | O=C(Cn1c(=O)oc2ccccc21)N(c1ccccc1)c1ccccc1 | – | > 100 µM | > 100 µM | > 100 µM | – | > 100 µM | > 100 µM | > 100 µM | > 100 µM | > 100 µM | – | – | – | – | – | – | –
21 | CC[C@@]1(O)C(=O)OCc2c1cc1n(c2=O)Cc2c-1nc1ccc(N)cc1c2CC[Si](C)(C)C | 1.07 µM | 1.63 µM | < 0.01 µM | 3.23 µM | 5.94 µM | – | 13.8 µM | 13.7 µM | 14.6 µM | 1.68 µM | – | – | – | – | – | – | –
22 | COc1cc2c(cc1C)NC(=O)/C2=C/c1c(Cl)[nH]c2ccccc12 | 25 µM | 7.71 µM | 7.37 µM | 20.9 µM | – | 24.7 µM | 20.8 µM | 18.3 µM | 19.6 µM | 27 µM | – | – | – | – | – | – | –
23 | CN1C/C(=C\c2ccccc2)C2=NN(C(N)=S)[C@H](c3ccccc3)[C@@H]2C1 | > 100 µM | > 100 µM | 54.8 µM | > 100 µM | > 100 µM | – | > 100 µM | – | > 100 µM | – | – | – | – | – | – | – | –
24 | CC(C)C(Sc1nc(N)nc2nc[nH]c12)C(=O)O (stereo unspecified) | – | > 100 µM | > 100 µM | > 100 µM | > 100 µM | > 100 µM | > 100 µM | > 100 µM | > 100 µM | > 100 µM | – | – | – | – | – | – | –
